Values quoted from earlier work, collected in patent US20040204492A1, “Topical composition and method for treating seborrheic dermatitis” (Healthpoint, Ltd., priority 2003, published 2004).

System: sulfonamide sensitive gram-positive and gram-negative microorganisms
Conditions: microorganisms commonly isolated from secondary cutaneous infections

CC(=O)NS(=O)(=O)c1ccc(N)cc1.O.[Na] [Sulfacetamide sodium, Acetamide N-[(4-aminophenyl)sulfonyl]-, monosodium salt, monohydrate]
bacteriostatic effect: exerts a bacteriostatic effect
